Assays:
mARC2 = target: T1, mARC2 (Homo sapiens, UniProt Q969Z3); assay: Bioconversion with the mARC enzyme system (UV/Vis NADH assay, LC-MS); type: in vitro ADME; settings: for conversion to reduced amidine 1 (LC-MS): mARC2 incubation
T1 sequence (Q969Z3 36-335): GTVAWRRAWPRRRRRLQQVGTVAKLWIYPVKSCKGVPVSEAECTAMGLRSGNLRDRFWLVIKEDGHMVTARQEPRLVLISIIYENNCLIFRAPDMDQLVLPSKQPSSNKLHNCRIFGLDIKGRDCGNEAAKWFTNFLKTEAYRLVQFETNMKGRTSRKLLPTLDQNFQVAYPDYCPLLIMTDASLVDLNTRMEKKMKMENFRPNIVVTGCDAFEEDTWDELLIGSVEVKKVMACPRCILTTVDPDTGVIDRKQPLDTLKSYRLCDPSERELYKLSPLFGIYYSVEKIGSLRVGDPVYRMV
Procedure: (§1) The turnover rate of the amidoxime 2 was tested by an enzymatic NADH assay ^[38] with the mARC enzyme system in comparison to the model substrate benzamidoxime (BAO).
(§2) Due to this known in vivo studies and to other known prodrugs which are activated by mARC, for example, upamostat and ximelagatran, ^[38] it can be expected that the amidoxime prodrug 2 will also be converted extensively in vivo, and is thus a very suitable prodrug for the amidine 1 and making it orally available.
(§3) The assay was performed as previously described. ^[38] The proteins were dissolved in 20 mM of 2‐(N‐morpholino)ethanesulfonic acid (MES) buffer (pH 6.0) in disposable micro UV cuvettes. Each batch contained 15 μg human mARC, 7 μg B5 and 0.16 μg B5R. The enzymes were preincubated with the respective substrate (concentration 3 mM) for 3 min at 37 °C (total volume 240 μL). This mixture was measured as blank value and immediately mixed with 60 μL NADH (concentration 1 mM). The kinetics were measured over a period of 15 min at 37 °C, with absorption between 300 and 400 nm being measured at intervals of 30 sec. The measurement was stopped when the absorption stopped changing. The measurements were taken with a Varian Cary® 50 UV/Vis spectrophotometer from Agilent, which was tempered with a Varian Cary® PCB‐150 Peltier Controlled Cryobath. The samples were mixed with cold methanol and centrifuged for 5 min at 10 000 rpm, Swing‐out Rotor, and stored at −80 °C for further analysis.
(§4) A Bruker Amazon SL Ion Trap with upstream Agilent 1260 HPLC system was used with a Waters Xterra MS C8, 4.6×50 mm, 3.5 μm column, with Phenomenex, Security Guard C18 precolumn 3×4 mm. A gradient was employed with eluent A: 0.1 % acetic acid Suprapur, Merck, in Aqua Bidest, eluent B: CH3CN, Sigma Aldrich Chromasolv for gradient HPLC. The gradient was changed from 97 % A to 100 % B within 10 min. The injection volume was 1 μL and 10 μL respectively. The column temperature was 20 °C. Software of the HPLC: Hystar 3.2 SR 2. Software to control the mass spectrometer: Bruker Trap Control 7.0 Software to evaluate the data: Bruker Data Analysis 4.0.

mARC1 = target: T2, mARC1 (Homo sapiens, UniProt Q5VT66); assay: as above; type: in vitro ADME; settings: for conversion to reduced amidine 1 (LC-MS): mARC1 incubation
T2 sequence (Q5VT66 41-337 limits assumed): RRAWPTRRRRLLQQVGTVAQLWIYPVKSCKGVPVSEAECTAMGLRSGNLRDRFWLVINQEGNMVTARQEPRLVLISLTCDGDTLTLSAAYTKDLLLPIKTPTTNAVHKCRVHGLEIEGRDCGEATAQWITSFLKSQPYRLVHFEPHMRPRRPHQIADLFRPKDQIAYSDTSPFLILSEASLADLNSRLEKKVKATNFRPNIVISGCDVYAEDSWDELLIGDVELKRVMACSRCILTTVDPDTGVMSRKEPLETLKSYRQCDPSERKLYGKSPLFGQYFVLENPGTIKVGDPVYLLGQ
Procedure: as §1, §2, §3, §4

[1] = Stability in human plasma; type: in vitro ADME; settings: 37 °C
Procedure: Finally, the stability in human plasma was assessed.
Human plasma was purchased from 3H Biomedical (Uppsala, Sweden). For the determination of enzymatic stability in human plasma, the reactions were initiated by adding 50 μL of compound stock solution to 450 μL of pre‐heated plasma, and incubated at 37±0.5 °C. At appropriate time intervals, 50 μL of the plasma were taken and deproteinized by the addition of 450 μL of CH3CN. After mixing and centrifugation for 10 min at 10 000 rpm, the supernatant (5 μL) was analyzed by HPLC, adopting the same chromatographic conditions described for chemical stability evaluations. ^[48]

[2] = Chemical stability in nonenzymatic simulated gastric and intestinal fluids; type: physicochemical; settings: 2 h
Procedure: The effects of gastrointestinal digestion are important parameters to be taken into consideration in the determination of bioavailability and bioactivity of new compounds. In particular, the luminal instability, due to the pH or enzymatic degradation, may compromise the transmucosal transport of the prodrug designed for permeability enhancement. Therefore, in this study the chemical stability of compound 2 was assessed to exclude any undesirable degradation at acid and physiological environments. Hydrochloric acid buffer (pH 2.0) as a nonenzymatic simulated gastric fluid (SGF), and phosphate buffer (pH 7.4) as nonenzymatic simulated intestinal fluid (SIF) were employed to evaluate the chemical stability. […] For chemical stability, a 0.01 M hydrochloric acid buffer (pH 1.3) and 0.01 M phosphate buffer (pH 7.4) were used. To assess enzymatic stability, the same hydrochloric buffer with and without pepsin (10 or 40 mg/mL) and phosphate buffer with and without pancreatin (10 or 40 mg/mL) were used. […] The mixture was vortexed and centrifuged at 2 °C and 10 000 rpm, Swing‐out Rotor, for 10 min, and the content of tested compound in the supernatant was analyzed by HPLC. Experiments were run in triplicate and the mean values of the rate constants were calculated.

C/C(=N\O)NC(c1ccccc1)c1ccccc1 [Compound 2, (1E)‐N‐(diphenylmethyl)‐N′‐hydroxyethanimidamide]
conversion to reduced amidine 1 (LC-MS) (mARC2): could be found | conversion to reduced amidine 1 (LC-MS) (mARC2; listed as amidoxime): completely converted | turnover rate (NADH consumption) compared with BAO (mARC2; mARC2 with B5 and B5R, substrate 3 mM, pH 6.0, 37 °C): very similar | conversion to reduced amidine 1 (LC-MS) (mARC1): could be found | conversion to reduced amidine 1 (LC-MS) (mARC1; listed as amidoxime): completely converted | turnover rate (NADH consumption) compared with BAO (mARC1; mARC1 with B5 and B5R, substrate 3 mM, pH 6.0, 37 °C): clearly identical | stability in human plasma [1]: stable | chemical stability in nonenzymatic simulated gastric fluid (SGF) ([2]; hydrochloric acid buffer pH 2.0 (method: pH 1.3), 37 °C): stable | chemical stability in nonenzymatic simulated intestinal fluid (SIF) ([2]; phosphate buffer pH 7.4, 37 °C): stable | melting point: 112 to 115 °C

Source: PMC7756445, “A Novel Prodrug of a nNOS Inhibitor with Improved Pharmacokinetic Potential” (Chemmedchem, 2020)
